Assay results taken from article PMC9415015, “CK2 Inhibition and Antitumor Activity of 4,7-Dihydro-6-nitroazolo[1,5-a]pyrimidines” (Molecules, 2022).
Where two headings read alike, the source gives them in different places.

What was measured:
[1] = tested on: Rd cells; assay: MTT test, embryonic rhabdomyosarcoma cells; format: cell-based, human; conditions: for Cytotoxicity index IC50 ± SE, Rd: MTT, 72 h incubation; for Selectivity ratio SR (RD): normal/cancer cell (Hek-293 vs Rd)
Procedure: (§1) The studies were carried out on cultured cells of human glioblastoma (A-172, ATCC CRL 1620), human osteosarcoma (Hos, ATCC CRL 1543), human embryonic rhabdomyosarcoma (Rd, ATCC CRL 136), and human embryonic kidney 293 cells (Hek-293, ATCC CRL 1573) obtained from the Shared research facility “Vertebrate cell culture collection” (Institute of Cytology RAS, Saint-Petersburg, Russia). The cells were cultured using DMEM / F-12 medium containing 10% fetal bovine serum at 37°C, 5% CO2, and 98% humidity. Subculturing was performed using 0.25% trypsin solution when the culture reached ≥90% confluency.
(§2) The compounds were dissolved in DMSO. The solutions were diluted with DMEM/F-12 culture medium with 10% fetal bovine serum to the studied concentrations: 8, 16, 32, 64, 128, 256, 512, and 1024 µM. […] Cisplatin (cPt) was used as a positive control.
(§3) Cells were seeded in 96-well plates at a concentration of 4 × 10^3 cells per well. After 24 h, test compounds were added to the wells in a given concentration range. Then the cells were incubated for 72 h, after which a solution of MTT (3-(4,5-dimethyl-2-thiazolyl)-2,5-diphenyl-2H-tetrazolium bromide) was added to the cultures at 20 µL (5 mg/mL) to the well. After 2.5 h, the medium was removed from the wells and 200 µL of a mixture of DMSO/i-PrOH 1/1 was added. Optical density was measured on a plate spectrophotometer at a wavelength of 570 nm.
(§4) Statistical data processing was carried out in the RStudio program (Version 1.4.1106 © […] RStudio, PBC, Boston, MA, USA) using the R package (version 4.1.2). The cytotoxicity index (IC50) was calculated by plotting dose–response curves using the “drc” package.

[2] = tested on: Hos cells; assay: MTT test, osteosarcoma cells; format: cell-based, human; conditions: for Cytotoxicity index IC50 ± SE, Hos: MTT, 72 h incubation; for Selectivity ratio SR (HOS): normal/cancer cell (Hek-293 vs Hos)
Procedure: as §1, §2, §3, §4

[3] = molecular target: T1, human recombinant CK2α1 (Homo sapiens, UniProt P68400); assay: CK2 ADP-Glo kinase assay; format: biochemical; conditions: for Effect on CK2 activity in initial screening (in words): initial screening at 50 μM; for inhibition at 50 µM: read-out: CK2 Inhibition at 50 μM, m ± SD (%)
T1 construct: purchased Promega V4482
Procedure: Kinase activity was determined using the enzyme system CK2α1 (Promega V4482, Madison, WI, USA) and the ADP-Glo^TM kit (Promega V9101, Madison, WI, USA) in white 96-well plates (Nunc U96 Microwell 267350, Denmark). The reaction was carried out using 50 ng/well of N-GST labeled human recombinant CK2α1, 0.1 µg/µL bovine casein as a substrate, 10 μM ATP in 40 mM Tris buffer solution (pH 7.50) containing 20 mM MgCl2, 0.1 mg/mL of BSA, and 50 μM of DTT. Test compounds were added to 1.25% DMSO (final concentration 0.25%) and preincubated with kinase for 10 min. The reaction was carried out for 60 min at 25 °C in a thermostatically controlled PST-60HL shaker (Biosan. […], Latvia). ATP-dependent luminescence was measured at an integration time of 1000 ms using the Infinite M200 PRO microplate reader (Tecan. Austria). The ATP-competitive inhibitor Staurosporin (CAS 62996–74-1, Alfa Aesar J62837, 99+%) was used as a positive control. The experiments were performed in two parallels.

[4] = tested on: A-172 cells; assay: MTT test, glioblastoma cells; format: cell-based, human; conditions: for Cytotoxicity index IC50 ± SE, A-172: MTT, 72 h incubation; for Selectivity ratio SR (A-172): normal/cancer cell (Hek-293 vs A-172)
Procedure: as §1, §2, §3, §4

[5] = tested on: Hek-293 cells; assay: MTT test, human embryonic kidney cells; format: cell-based; conditions: 72 h incubation
Procedure: as §1, §2, §3, §4

[6] = dose-response study of CK2 inhibition

T1 sequence (P68400 whole entry): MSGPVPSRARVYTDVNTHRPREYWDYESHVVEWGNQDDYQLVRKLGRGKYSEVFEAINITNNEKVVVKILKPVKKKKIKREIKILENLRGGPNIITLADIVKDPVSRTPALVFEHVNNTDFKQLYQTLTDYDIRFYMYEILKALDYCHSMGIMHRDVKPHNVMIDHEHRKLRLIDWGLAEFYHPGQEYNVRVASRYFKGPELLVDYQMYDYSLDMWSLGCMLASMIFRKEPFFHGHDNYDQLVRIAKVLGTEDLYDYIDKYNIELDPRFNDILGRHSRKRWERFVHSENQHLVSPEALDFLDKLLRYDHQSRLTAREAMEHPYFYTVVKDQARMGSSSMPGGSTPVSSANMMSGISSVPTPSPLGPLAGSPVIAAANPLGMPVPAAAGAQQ

“3-Cyano-2-methylthio-6-nitro-7-(4ʹ-nitrophenyl)-4,7-dihydropyrazolo[1,5-a]pyrimidine [Compound 5o]” was tested, and the “Cytotoxicity index IC50 ± SE, Rd” value [1] was 36.33 ± 3.40 µM, the “Selectivity ratio SR (RD)” value [1] was 4.7 and the “Cytotoxicity index IC50 ± SE, Hos” value [2] was 28.09 ± 3.91 µM. The “Selectivity ratio SR (HOS)” value [2] was 6, the “Effect on CK2 activity in initial screening (in words)” value (“Effect on CK2 activity” below) [3] was “paradoxically enhance CK2 activity” and the “Cytotoxicity index IC50 ± SE, A-172” value [4] was 22.49 ± 2.93 µM. The “Selectivity ratio SR (A-172)” value [4] was 7.5.

In the case of “5-Methyl-2-methylthio-6-nitro-7-(4ʹ-nitrophenyl)-4,7-dihydro-1,2,4-triazolo[1,5-a]pyrimidine [Compound 6c]”, the “Cytotoxicity index IC50 ± SE, Rd” value [1] is reported as 71.15 ± 6.84 µM, the “Selectivity ratio SR (RD)” value [1] is reported as 3.2 and the “Cytotoxicity index IC50 ± SE, Hos” value [2] is reported as 40.88 ± 4.11 µM. For the same compound, the “Selectivity ratio SR (HOS)” value [2] was 5.6, the “Effect on CK2 activity” value [3] was “paradoxically enhance CK2 activity” and the “Cytotoxicity index IC50 ± SE, A-172” value [4] was 41.27 ± 4.10 µM. For the same compound, the “Selectivity ratio SR (A-172)” value [4] was 5.5.

`CC1=C([N+](=O)[O-])C(c2cccs2)n2nccc2N1` (centres unmarked) [Compound 5d, 6-Nitro-5-methyl-7-(thiophen-2ʹ-yl)-4,7-dihydropyrazolo[1,5-a]pyrimidine] was tested, and the “Cytotoxicity index IC50 ± SE, Rd” value [1] was 105.54 ± 16.81 µM, the “Cytotoxicity index IC50 ± SE, Hos” value [2] was 103.53 ± 18.27 µM and the “Cytotoxicity index IC50 ± SE, Hek-293” value [5] was 543.74 ± 70.79 µM. The “Cytotoxicity index IC50 ± SE, A-172” value [4] was 28.91 ± 4.58 µM.

`CCOC(=O)c1cnn2c1NC(CC)=C([N+](=O)[O-])C2c1ccccc1` (centres unmarked) [Compound 5e, 3-Etoxycarbonyl-5-ethyl-6-nitro-7-phenyl-4,7-dihydropyrazolo[1,5-a]pyrimidine] was tested, and the “Cytotoxicity index IC50 ± SE, Rd” value [1] was 99.46 ± 4.43 µM, the “Cytotoxicity index IC50 ± SE, Hos” value [2] was 126.60 ± 7.17 µM and the “Cytotoxicity index IC50 ± SE, Hek-293” value [5] was 222.84 ± 6.33 µM. For the same compound, the “Cytotoxicity index IC50 ± SE, A-172” value [4] was 256.72 ± 12.20 µM.

With `CCOC(=O)c1cnn2c1NC(CC)=C([N+](=O)[O-])C2c1ccc([N+](=O)[O-])cc1` (centres unmarked) [Compound 5f, 3-Etoxycarbonyl-5-ethyl-6-nitro-7-(4ʹ-nitrophenyl)-4,7-dihydropyrazolo[1,5-a]pyrimidine] the “Cytotoxicity index IC50 ± SE, Rd” value [1] was 121.97 ± 13.53 µM, the “Cytotoxicity index IC50 ± SE, Hos” value [2] was 170.14 ± 11.16 µM and the “Cytotoxicity index IC50 ± SE, Hek-293” value [5] was 35.86 ± 4.30 µM. For the same compound, the IC50 [3] was 52.8 µM, the “CK2 inhibitory potency in dose-response study (in words)” value (from here on “CK2 inhibitory potency”) ([3]; dose-response study) was “micromolar CK2 inhibitors” and the “Hill Coefficient” value [3, 6] was −1.369. The “Effect on CK2 activity” value [3] was “Moderate inhibition”, the inhibition at 50 µM [3] was 53.81 ± 0.42% and the “Cytotoxicity index IC50 ± SE, A-172” value [4] was 212.36 ± 42.85 µM.

With `N#Cc1cnn2c1NC=C([N+](=O)[O-])C2c1ccccc1` (centres unmarked) [Compound 5g, 3-Cyano-6-nitro-7-phenyl-4,7-dihydropyrazolo[1,5-a]pyrimidine] the “Cytotoxicity index IC50 ± SE, Rd” value [1] was 149.72 ± 11.01 µM, the “Cytotoxicity index IC50 ± SE, Hos” value [2] was 181.14 ± 7.47 µM and the “Cytotoxicity index IC50 ± SE, Hek-293” value [5] was 483.09 ± 37.61 µM. The “Effect on CK2 activity” value [3] was “paradoxically enhance CK2 activity” and the “Cytotoxicity index IC50 ± SE, A-172” value [4] was 171.74 ± 8.63 µM.

In the case of `CCC1=C([N+](=O)[O-])C(c2ccc([N+](=O)[O-])cc2)n2ncc(C#N)c2N1` (centres unmarked) [Compound 5h, 3-Cyano-5-ehtyl-6-Nitro-7-(4ʹ-nitrophenyl)-4,7-dihydropyrazolo[1,5-a]pyrimidine], the “Cytotoxicity index IC50 ± SE, Rd” value [1] is reported as 378.59 ± 20.39 µM, the “Cytotoxicity index IC50 ± SE, Hos” value [2] is reported as 234.97 ± 25.80 µM and the “Cytotoxicity index IC50 ± SE, Hek-293” value [5] is reported as 153.47 ± 12.35 µM. The IC50 [3] was 59.5 µM, the “CK2 inhibitory potency” value ([3]; dose-response study) was “micromolar CK2 inhibitors” and the “Hill Coefficient” value [3, 6] was −1.566. The “Effect on CK2 activity” value [3] was “Moderate inhibition”, the inhibition at 50 µM [3] was 54.8 ± 0.87% and the “Cytotoxicity index IC50 ± SE, A-172” value [4] was 323.41 ± 22.70 µM.

In the case of `CCC1=C([N+](=O)[O-])C(c2cccs2)n2ncc(C#N)c2N1` (centres unmarked) [Compound 5k, 3-Cyano-5-ethyl-6-nitro-7-(thiophen-2-yl)-4,7-dihydropyrazolo[1,5-a]pyrimidine], the “Cytotoxicity index IC50 ± SE, Rd” value [1] is reported as 89.43 ± 10.46 µM, the “Cytotoxicity index IC50 ± SE, Hos” value [2] is reported as 77.32 ± 3.06 µM and the “Cytotoxicity index IC50 ± SE, Hek-293” value [5] is reported as 107.57 ± 11.10 µM. The inhibition at 50 µM ([3]; 50 μM compound, 10 μM ATP, n.a. = not active) was 66.8 ± 7.97%, the “CK2 inhibitory potency” value ([3]; dose-response study) was “micromolar CK2 inhibitors” and the “Hill Coefficient” value [3, 6] was −1.183. For the same compound, the IC50 ([3]; dose-response study, 10 μM ATP, read-out: CK2 IC50) was 52.3 µM, the “Effect on CK2 activity” value [3] was “Moderate inhibition” and the “Cytotoxicity index IC50 ± SE, A-172” value [4] was 110.23 ± 2.97 µM.

With `CSc1nn2c(c1C#N)NC(C)=C([N+](=O)[O-])C2c1ccccc1` (centres unmarked) [Compound 5m, 3-Cyano-5-methyl-2-methylthio-6-nitro-7-phenyl-4,7-dihydropyrazolo[1,5-a]pyrimidine] the “Cytotoxicity index IC50 ± SE, Rd” value [1] was 27.52 ± 2.77 µM, the “Selectivity ratio SR (RD)” value [1] was 7.7 and the “Cytotoxicity index IC50 ± SE, Hos” value [2] was 18.54 ± 1.79 µM. The “Selectivity ratio SR (HOS)” value [2] was 11.4, the “Effect on CK2 activity” value [3] was “paradoxically enhance CK2 activity” and the “Cytotoxicity index IC50 ± SE, A-172” value [4] was 13.36 ± 0.98 µM. The “Selectivity ratio SR (A-172)” value [4] was 15.8.

For `CSc1nc2n(n1)C(c1ccccc1)C([N+](=O)[O-])=C(C)N2` (centres unmarked) [Compound 6b, 5-Methyl-2-methylthio-6-nitro-7-phenyl-4,7-dihydro-1,2,4-triazolo[1,5-a]pyrimidine], the “Cytotoxicity index IC50 ± SE, Rd” value [1] was 110.11 ± 4.93 µM, the “Cytotoxicity index IC50 ± SE, Hos” value [2] was 92.03 ± 3.08 µM and the “Cytotoxicity index IC50 ± SE, Hek-293” value [5] was 237.40 ± 11.99 µM. For the same compound, the “Cytotoxicity index IC50 ± SE, A-172” value [4] was 71.03 ± 2.07 µM.

`CN[C@@H]1C[C@H]2O[C@@](C)([C@@H]1OC)n1c3ccccc3c3c4c(c5c6ccccc6n2c5c31)C(=O)NC4` [Staurosporine, reference compound] was tested, and the “Hill Coefficient” value [3] was −0.974 and the inhibition at 50 µM [3] was 72.3 ± 6.39%.

In the case of `N.N.[Cl][Pt][Cl]` [cPt, Cisplatin, reference compound], the “Cytotoxicity index IC50 ± SE, Rd” value [1] is reported as 4.99 ± 0.31 µM, the “Selectivity ratio SR (RD)” value [1] is reported as 0.9 and the “Cytotoxicity index IC50 ± SE, Hos” value [2] is reported as 2.36 ± 0.12 µM. For the same compound, the “Selectivity ratio SR (HOS)” value [2] was 1.9, the “Cytotoxicity index IC50 ± SE, Hek-293” value [5] was 4.41 ± 0.24 µM and the “Cytotoxicity index IC50 ± SE, A-172” value [4] was 3.64 ± 0.21 µM. For the same compound, the “Selectivity ratio SR (A-172)” value [4] was 1.2.
